Laboratory results reported in patent US20230265151A1, “GIP/GLP1 CO-AGONIST COMPOUNDS” (priority 2020, published 2023).
Like-named read-outs stand apart in the source and are kept apart here. *1 amine or outer side, *2 acyl side, *3 side chain or, on linkers, in order; H or OH if unused. Where a SMILES comes first, the peptide text is derived from it. Side-chain parts run from the residue outwards. [ ]: non-standard residue; d: D form. The star is where a group is joined. Decanoyl(10-(4-HOOC-PhO)) = O=C(O)c1ccc(OCCCCCCCCCC(=O)*)cc1; αMePhe(2-F) = C[C@](N)(Cc1ccccc1F)C(=O)O; γGlu = O=C(O)[C@H](CCC(=O)[*:2])N[*:1]; αMeY = C[C@](N)(Cc1ccc(O)cc1)C(=O)O; αMeL = CC(C)C[C@](C)(N)C(=O)O; Orn = NCCC[C@H](N)C(=O)O; AEEA = NCCOCCOCC(=O)O; Aib = CC(C)(N)C(=O)O

Columns and labels:
Format in all cases: cell-based
[1] = molecular target: T1, hGIPR (Homo sapiens, UniProt P48546); assay: Functional cAMP formation (HTRF) in HEK-293 clonal cells expressing hGIPR, 0.1% bovine casein, without or with 1.0% human serum albumin; details: for Emax: percent of maximal response to GIP(1-42)NH2; for EC50: hGIPR EC50, nM (SEM, n), cAMP, 37° C., 0.1% bovine casein (no human serum albumin), geometric mean
T1 construct: expressed in transfected cells
T1 sequence (P48546 22-466): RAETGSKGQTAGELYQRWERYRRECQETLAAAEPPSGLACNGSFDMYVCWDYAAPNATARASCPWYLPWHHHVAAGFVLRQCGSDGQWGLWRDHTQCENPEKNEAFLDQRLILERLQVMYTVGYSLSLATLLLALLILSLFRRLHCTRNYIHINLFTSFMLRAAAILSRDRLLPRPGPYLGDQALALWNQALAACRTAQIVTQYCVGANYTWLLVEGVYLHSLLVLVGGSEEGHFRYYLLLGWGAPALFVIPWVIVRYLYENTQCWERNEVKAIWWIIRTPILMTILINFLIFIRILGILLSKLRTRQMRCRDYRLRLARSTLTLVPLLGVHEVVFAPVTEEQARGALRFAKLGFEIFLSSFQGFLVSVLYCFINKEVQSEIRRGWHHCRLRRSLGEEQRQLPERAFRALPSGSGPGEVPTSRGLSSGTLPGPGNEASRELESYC
In short: (§1)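 Cells were stimulated with peptide for 30 min at 37° C, then lysed in buffer carrying cAMP-d2 and anti-cAMP Eu3+-cryptate for a competitive HTRF read after at least 60 min at room temperature. The 665/620 nm ratio was converted to nM cAMP against a standard curve.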

[2] = molecular target: T2, hGCGR (Homo sapiens, UniProt P47871); assay: Functional cAMP formation (HTRF) in HEK-293 clonal cells expressing hGCGR, 0.1% bovine casein, without or with 1.0% human serum albumin; details: hGCGR EC50, nM (SEM, n), 37° C., geometric mean
T2 construct: expressed in transfected cells
In short: as §1

[3] = molecular target: hGLP-1R (Homo sapiens, UniProt P43220); assay: Functional cAMP formation (HTRF) in HEK-293 clonal cells expressing hGLP-1R, 0.1% bovine casein, without or with 1.0% human serum albumin; design: expressed in transfected cells; details: for Emax: percent of maximal response to GLP-1(7-36)NH2; for EC50: hGLP-1R EC50, nM (SEM, n), 37° C., geometric mean
In short: as §1

[4] = 0.1% bovine casein and 1.0% human serum albumin
[5] = cAMP, 0.1% bovine casein (no human serum albumin)
[6] = HEK293, read-out: hGLP-1R Emax, % ± SEM, 0.1% bovine casein and 1.0% human serum albumin, 37° C.
[7] = HEK293, read-out: hGLP-1R Emax, % ± SEM, cAMP, 37° C., 0.1% bovine casein, arithmetic mean

T2 sequence (P47871 26-477): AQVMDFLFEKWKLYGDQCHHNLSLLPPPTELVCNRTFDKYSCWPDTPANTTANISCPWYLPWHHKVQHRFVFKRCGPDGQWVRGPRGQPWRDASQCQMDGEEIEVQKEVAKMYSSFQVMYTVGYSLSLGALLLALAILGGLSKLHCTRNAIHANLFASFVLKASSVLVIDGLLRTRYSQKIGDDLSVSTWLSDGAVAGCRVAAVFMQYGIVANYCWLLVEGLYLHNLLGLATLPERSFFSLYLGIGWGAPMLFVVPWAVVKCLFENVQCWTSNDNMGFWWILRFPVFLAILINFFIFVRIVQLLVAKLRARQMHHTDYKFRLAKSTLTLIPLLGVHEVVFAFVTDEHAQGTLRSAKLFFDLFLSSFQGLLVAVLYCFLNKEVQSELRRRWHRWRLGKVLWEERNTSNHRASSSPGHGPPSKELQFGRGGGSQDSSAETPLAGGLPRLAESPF
hGLP-1R, sequence (P43220 24-463): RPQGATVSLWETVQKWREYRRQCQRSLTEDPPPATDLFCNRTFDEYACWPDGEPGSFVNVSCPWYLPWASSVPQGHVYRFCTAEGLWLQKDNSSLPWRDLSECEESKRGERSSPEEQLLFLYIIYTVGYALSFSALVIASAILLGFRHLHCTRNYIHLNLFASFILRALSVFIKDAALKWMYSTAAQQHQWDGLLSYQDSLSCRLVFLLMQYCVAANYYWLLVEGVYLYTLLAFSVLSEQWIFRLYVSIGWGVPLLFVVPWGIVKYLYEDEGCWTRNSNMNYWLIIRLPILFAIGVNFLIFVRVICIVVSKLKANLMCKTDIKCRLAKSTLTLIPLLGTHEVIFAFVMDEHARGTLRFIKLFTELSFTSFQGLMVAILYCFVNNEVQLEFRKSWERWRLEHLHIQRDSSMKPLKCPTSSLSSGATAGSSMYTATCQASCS

Row | SMILES | Emax ([1]; HEK293, read-out: hGIPR Emax, % ± SEM, 0.1% bovine casein and 1.0% human serum albumin, 37° C.) [%] | EC50 [1] [nM] | EC50 [2, 4] [nM] | EC50 [2, 5] [nM] | Emax [3, 6] [%] | Emax [3, 7] [%] | EC50 [3, 4] [nM] | EC50 [3, 5] [nM] | Emax ([1]; HEK293, read-out: hGIPR Emax, % ± SEM, cAMP, 37° C., 0.1% bovine casein, arithmetic mean) [%]
1 | CC[C@H](C)[C@H](NC(=O)[C@H](CCCN)NC(=O)[C@H](CC(=O)O)NC(=O)[C@H](CC(C)C)NC(=O)[C@](C)(CC(C)C)NC(=O)[C@@H](NC(=O)[C@H](CO)NC(=O)[C@H](Cc1ccc(OC)cc1)NC(=O)[C@H](CC(=O)O)NC(=O)[C@H](CO)NC(=O)[C@@H](NC(=O)[C@](C)(Cc1ccccc1F)NC(=O)[C@@H](NC(=O)CNC(=O)[C@H](CCC(=O)O)NC(=O)C(C)(C)NC(=O)[C@@H](N)Cc1ccc(O)cc1)[C@@H](C)O)[C@@H](C)O)[C@@H](C)CC)C(=O)N[C@@H](C)C(=O)N[C@@H](CCC(N)=O)C(=O)NC(C)(C)C(=O)N[C@@H](CCC(=O)O)C(=O)N[C@@H](Cc1ccccc1)C(=O)N[C@H](C(=O)N[C@@H](CCCCNC(=O)COCCOCCNC(=O)COCCOCCNC(=O)CC[C@H](NC(=O)CCCCCCCCCOc1ccc(C(=O)O)cc1)C(=O)O)C(=O)N[C@@](C)(Cc1ccc(O)cc1)C(=O)N[C@@H](CC(C)C)C(=O)N[C@H](C(=O)N[C@@H](CCCCNC(=O)COCCOCCNC(=O)COCCOCCNC(=O)CC[C@H](NC(=O)CCCCCCCCCOc1ccc(C(=O)O)cc1)C(=O)O)C(=O)NCC(=O)NCC(=O)N1CCC[C@H]1C(=O)N[C@@H](CO)C(=O)N[C@@H](CO)C(=O)NCC(=O)N[C@@H](C)C(=O)N1CCC[C@H]1C(=O)N1CCC[C@H]1C(=O)N1CCC[C@H]1C(=O)N[C@@H](CO)C(N)=O)[C@@H](C)CC)[C@@H](C)CC [Example 279] (H-Y[Aib]EGT[αMePhe(2-F)]TSDY(Me)SI[αMeL]LD[Orn]IAQ[Aib]EFIK([AEEA-AEEA-γGlu-Decanoyl(10-(4-HOOC-PhO))])[αMeY]LIK([AEEA-AEEA-γGlu-Decanoyl(10-(4-HOOC-PhO))])GGPSSGAPPPS-NH2) | 88.6 | 0.0305 | > 9950 | > 9950 | 114 | 112 | 36.6 | 0.406 | –
2 | CC[C@H](C)[C@H](NC(=O)[C@H](CCCN)NC(=O)[C@H](CC(=O)O)NC(=O)[C@H](CC(C)C)NC(=O)[C@](C)(CC(C)C)NC(=O)[C@@H](NC(=O)[C@H](CO)NC(=O)[C@H](Cc1ccc2ccccc2c1)NC(=O)[C@H](CC(=O)O)NC(=O)[C@H](CO)NC(=O)[C@@H](NC(=O)[C@](C)(Cc1ccccc1F)NC(=O)[C@@H](NC(=O)CNC(=O)[C@H](CCC(=O)O)NC(=O)C(C)(C)NC(=O)[C@@H](N)Cc1ccc(O)cc1)[C@@H](C)O)[C@@H](C)O)[C@@H](C)CC)C(=O)N[C@@H](C)C(=O)N[C@@H](CCC(N)=O)C(=O)NC(C)(C)C(=O)N[C@@H](CCCCNC(=O)COCCOCCNC(=O)COCCOCCNC(=O)CC[C@H](NC(=O)CCCCCCCCCOc1ccc(C(=O)O)cc1)C(=O)O)C(=O)N[C@@H](Cc1ccccc1)C(=O)N[C@H](C(=O)N[C@H](CCC(=O)O)C(=O)N[C@@](C)(Cc1ccc(O)cc1)C(=O)N[C@@H](CC(C)C)C(=O)N[C@H](C(=O)N[C@@H](CCCCNC(=O)COCCOCCNC(=O)COCCOCCNC(=O)CC[C@H](NC(=O)CCCCCCCCCOc1ccc(C(=O)O)cc1)C(=O)O)C(=O)NCC(=O)NCC(=O)N1CCC[C@H]1C(=O)N[C@@H](CO)C(=O)N[C@@H](CO)C(=O)NCC(=O)N[C@@H](C)C(=O)N1CCC[C@H]1C(=O)N1CCC[C@H]1C(=O)N1CCC[C@H]1C(=O)N[C@@H](CO)C(N)=O)[C@@H](C)CC)[C@@H](C)CC [Example 284] | – | 0.0389 | > 9950 | > 9950 | 112 | 110 | – | 0.505 | 98.3
